Experimental data reported in US20250288600A1, “USES OF FARNESOID X RECEPTOR AGONISTS” (priority 2022, published 2025).
Entries after “also recorded” stand apart in the source; their conditions may differ.

Experiments:
[1] = test system: mouse model of alcoholic steatohepatitis; experiment: Mouse model of alcoholic steatohepatitis (ALD), Lieber-DeCarli ethanol diet, oral dosing Day 1-14; type: in vivo; details: for fibrosis as analyzed by Pico Sirius Red: 30 mpk, no fibrosis at baseline or in the vehicle group; for serum bile acids: versus vehicle treated ALD mice
Description: The objective of this study was to assess efficacy of the test articles obeticholic acid (OCA), Compound 1 and Compound 2 on liver and intestinal pathology in a mouse model of alcoholic steatohepatitis.
• Species: Mouse • Strain: C57BL/6J (JAX #000664) • Condition: Purpose-bred, naïve • Source: Jackson Laboratories • Number of Females: 138 (119 on study+19 spares) • Target Age at the 10 weeks
Diet: 5CR4 chow until Day −26; Lieber-DeCarli liquid diet Days […] to Day 15. Upon arrival at the Testing Facility, all animals were placed on PMI Nutrition International Certified Rodent Chow No. 5CR4 ad libitum. During the chow diet phase (until Day −26), the diet in meal form may be provided to individual animals as warranted by clinical signs (e.g., broken/damaged incisors or other health changes).
On Day −26, all animals received 50 mL ethanol diet (1% v/v ethanol). The percentage of alcohol in the liquid diet was increased by 1% v/v every day until reaching 5% (v/v) on day −22 and is maintained at 5% v/v until the end of the study.
Dose Route and timing: Oral Gavage (Group 2-7) Once Daily (Day 1-14). The first day of dosing was designated as Day 1. The dose formulations were stirred continuously during dosing. The doses were given using a syringe with attached gavage cannula.
Terminal plasma and tissue samples were gathered. Plasma was analyzed for TG, TC, ALT, AST, ALP, FGF15 (LCMS), TBIL, and endotoxin.
Frozen liver samples from main study were analyzed in duplicates for the estimation of liver lipids including triglycerides and cholesterol. Liver samples were kept on dry ice until transferred to sample management and stored in a freezer set to maintain […] until analysis.
The liver and small intestine collected from all animals in Groups 1-7 (Main Study) were fixed in 10% neutral buffered formalin for 24-48 hours and transferred to 70% EtOH, stored under ambient conditions and transferred to the histopathology lab at Testing Facility.
Formalin fixed liver tissues were trimmed to slides and stained with H&E and picrosirius red stains. Slides were scored by Charles River board certified veterinarian pathologists.
Formalin fixed small intestine tissues were trimmed to slides and stained with H&E and IHC antibodies (PV-1, ZO-1 and Occludin). Slides were scored by board certified veterinarian pathologists.

[2] = like ursodeoxycholic acid; cited from earlier work
male rats = experiment: Irwin study (neurologic function); details: tested up to 180 mg/kg
healthy subjects = experiment: Phase 1 dose-escalation study in healthy subjects
dogs = experiment: Respiratory function safety pharmacology in dogs; details: single doses up to 300 mg/kg
[3] = promptly secreted in the bile mostly as such; cited from earlier work
[4] = higher than OCA; cited from earlier work
TGR5 = target: T1, TGR5 (Homo sapiens, UniProt Q8TDU6); details: cited from earlier work
T1 sequence (Q8TDU6 1-330): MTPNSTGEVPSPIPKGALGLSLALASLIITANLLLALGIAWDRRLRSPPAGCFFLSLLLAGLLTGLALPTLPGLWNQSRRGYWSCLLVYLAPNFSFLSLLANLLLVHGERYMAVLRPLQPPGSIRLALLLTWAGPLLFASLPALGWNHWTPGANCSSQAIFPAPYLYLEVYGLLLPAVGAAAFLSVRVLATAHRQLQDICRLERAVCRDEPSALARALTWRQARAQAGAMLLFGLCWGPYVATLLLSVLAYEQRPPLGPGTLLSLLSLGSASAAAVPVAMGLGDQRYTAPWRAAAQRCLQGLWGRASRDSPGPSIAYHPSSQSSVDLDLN

Structure (SMILES): CC[C@H]1[C@@H](O)[C@@H]2[C@H](CC[C@]3(C)[C@@H]([C@H](C)CCC(=O)O)CC[C@@H]23)[C@@]2(C)CC[C@@H](O)C[C@@H]12 [OCA, obeticholic acid, reference compound]
- fibrosis as analyzed by Pico Sirius Red [1]: minimal increase in fibrosis
- % Alive ([1]; Dose 30 mkd, PO QD Day 1-14, includes animals for PK): 53%

Structure (SMILES): CC[C@H]1[C@@H](O)[C@@H]2[C@H]([C@@H](O)C[C@]3(C)[C@@H]([C@H](C)CCC(=O)O)CC[C@@H]23)[C@@]2(C)CC[C@@H](O)C[C@@H]12 [Compound 1, 3a,7a,11β-trihydroxy-6α-ethyl-5β-cholan-24-oic acid]
- critical micellular concentration [2]: high
- neurologic function (male rats): did not alter neurologic function
- tolerability (healthy subjects; 5 mg once daily for 14-days): well tolerated
- adverse events (healthy subjects; doses less than 50 mg, single or repeat doses, healthy subjects): no AEs of clinical concern
- respiratory function (dogs): not affected
- hepatic residence time [3]: very low
- survival (in words) ([1]; 10 mg/kg and 30 mg/kg groups): improved survival better than OCA; also recorded: greatly improved survival
- steatosis (graded 1-5 by a pathologist) ([1]; 10 mpk group, liver histology): close to statistical significance
- fibrosis as analyzed by Pico Sirius Red [1]: minimal increase in fibrosis
- serum bile acids ([1]; both doses): significantly lowered
- water solubility relative to obeticholic acid (OCA) [4]: 16 fold

Structure (SMILES): CC[C@H]1[C@@H](O)C2C3CC[C@H]([C@H](C)CCC(=O)O)[C@@]3(C)C[C@H](O)C2[C@@]2(C)CCCC[C@@H]12 (stereo partly drawn) [Compound 2]
- fibrosis as analyzed by Pico Sirius Red [1]: minimal increase in fibrosis
- serum bile acids ([1]; high dose): significantly lowered
- bilirubin ([1]; terminal plasma): decreased
- serum ALP ([1]; terminal plasma): increased
- activity on TGR5 (TGR5): no activity
